Source: publication PMC4503722, “Novel Phenotypic Outcomes Identified for a Public Collection of Approved Drugs from a Publicly Accessible Panel of Assays” (PLoS ONE, 2015)
*1 amine or outer side, *2 acyl side, *3 side chain or, on linkers, in order; H or OH if unused. Where a SMILES comes first, the peptide text is derived from it. Bridges are numbered along the chain shown (N, C = ends). Roman numbers before positions name the chains, in order. [ ]: non-standard residue; d: D form. Actinocin(9to1) = Cc1c2oc3c(C)ccc(C(=O)[*:1])c3nc-2c(C(=O)[*:2])c(N)c1=O; NMeV = CN[C@H](C(=O)O)C(C)C; Sar = CNCC(=O)O

Assays:
[1] = system: ECFC/ADSC co-culture cell nuclei number
[2] = system: nuclear β-catenin in C2C12 cells; assay: cells; type: cell-based; settings: concentration response; for WntCondMedia_bCatenin C2C12 IC50/EC50: assay number 5
[3] = system: alkaline phosphatase (ALP) activity in C2C12 cells; type: cell-based; settings: concentration response; for WntCondMedia_Alk Phos C2C12 IC50/EC50: assay number 6
HeLa cells = assay: cells; type: cell-based; settings: for Hela CellCycMod PI 2N IC50/EC50: assay number 14; for Hela CellCycMod PI 4N IC50/EC50: assay number 16; for Hela CellCycMod PI MI IC50/EC50: assay number 17; for Hela CellCycMod PI Cell Number IC50/EC50: assay number 18; for Hela CellCycMod PI S Phase IC50/EC50: assay number 15
[4] = system: endothelial tube formation in co-cultures of ECFCs and ADSCs treated with VEGF; assay: cells; type: cell-based, human
DLD-1 = assay: cells; type: cell-based; settings: basal
[5] = system: HCT116 cells treated with a GSK3β inhibitor; assay: cells; type: cell-based; settings: for GSK3b inh pretreated_Viability ATP HCT116 IC50/EC50: assay number 26, GSK3b inhibitor pretreated
RKO = assay: cells; type: cell-based; settings: basal; for Basal_Viability ATP RKO IC50/EC50: assay number 29
SNU-C1 = assay: cells; type: cell-based; settings: basal; for Basal_Viability ATP SNU-C1 IC50/EC50: assay number 30
HT-29 = assay: cells; type: cell-based; settings: basal; for Basal_Viability ATP HT-29 IC50/EC50: assay number 28
SW480 = assay: cells; type: cell-based; settings: basal
HCT116 = assay: cells; type: cell-based; settings: basal
Colo320 = assay: cells; type: cell-based; settings: basal; for Basal_Viability ATP Colo 320 IC50/EC50: assay number 27
INS-1E cells = assay: cells; type: cell-based, rat; settings: 5 mM glucose;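 also: secreted insulin quantified by homogeneous immunoassay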

SMILES	VEGF_ADSC\ECFC Angio Hoechst NucArea IC50/EC50 [1] [nM]	WntCondMedia_bCatenin C2C12 IC50/EC50 [2] [nM]	WntCondMedia_Alk Phos C2C12 IC50/EC50 [3] [nM]	Hela CellCycMod PI 2N IC50/EC50 (HeLa cells) [nM]	Hela CellCycMod PI 4N IC50/EC50 (HeLa cells) [nM]	Hela CellCycMod PI MI IC50/EC50 (HeLa cells) [nM]	Hela CellCycMod PI Cell Number IC50/EC50 (HeLa cells) [nM]	VEGF_ADSC\ECFC Angio CD31 TubeArea IC50/EC50 [4] [nM]	IC50/EC50, WntCondMedia_bCatenin C2C12 (assay number 5) [2] [nM]	IC50/EC50, WntCondMedia_Alk Phos C2C12 (assay number 6) [3] [nM]	other results
CN1CC[C@H](c2c(O)cc(O)c3c(=O)cc(-c4ccccc4Cl)oc23)[C@H](O)C1.Cl [NCGC00250401-02]	328.4	190.5	461.1	> 10000	> 10000	80.7	21.2	113.8			
NC(N)=NN=C(/C=C/c1ccc([N+](=O)[O-])o1)/C=C/c1ccc([N+](=O)[O-])o1 [NCGC00181330-02]									> 20000	372	IC50/EC50, Basal_Viability ATP DLD-1 (assay number 23) (DLD-1): > 20000 nM; IC50/EC50, GSK3b inh pretreated_Viability ATP HCT116 (assay number 26) ([5]; GSK3b inh pretreated): 23.7 nM; IC50/EC50, Basal_Viability ATP RKO (assay number 29) (RKO): 12.8 nM; IC50/EC50, Basal_Viability ATP SNU-C1 (assay number 30) (SNU-C1): 1353.9 nM; IC50/EC50, Basal_Viability ATP HT-29 (assay number 28) (HT-29): 3 nM; IC50/EC50, Hela CellCycMod PI 2N (assay number 14) (HeLa cells): > 10000 nM; IC50/EC50, Hela CellCycMod PI 4N (assay number 16) (HeLa cells): > 10000 nM; IC50/EC50, Hela CellCycMod PI Cell Number (assay number 18) (HeLa cells): > 10000 nM; IC50/EC50, Hela CellCycMod PI MI (assay number 17) (HeLa cells): > 10000 nM; IC50/EC50, Hela CellCycMod PI S Phase (assay number 15) (HeLa cells): > 10000 nM; IC50/EC50, Basal_Viability ATP SW480 (assay number 24) (SW480): 7.6 nM; IC50/EC50, Basal_Viability ATP HCT116 (assay number 25) (HCT116): 135.7 nM; IC50/EC50, Basal_Viability ATP Colo 320 (assay number 27) (Colo320): 3 nM
CN[C@@H]1C[C@@H](c2ccc(Cl)c(Cl)c2)c2ccccc21 [NCGC00025223-04]	> 10000	> 20000	> 20000					> 10000			
COc1cccc2c1C(=O)c1c(O)c3c(c(O)c1C2=O)C[C@@](O)(C(=O)CO)C[C@@H]3O[C@H]1C[C@H](N)[C@H](O[C@@H]2CCCCO2)[C@H](C)O1 [NCGC00344543-01]	994.9	> 20000	3948.8	79.5	80.63	> 10000	51.43	6.3			Basal_Viability ATP DLD-1 IC50/EC50 (DLD-1; assay number 23): 8952 nM; GSK3b inh pretreated_Viability ATP HCT116 IC50/EC50 [5]: 1275 nM; Basal_Viability ATP RKO IC50/EC50 (RKO): 1010 nM; Basal_Viability ATP SNU-C1 IC50/EC50 (SNU-C1): 9261.7 nM; Basal_Viability ATP HT-29 IC50/EC50 (HT-29): > 20000 nM; Hela CellCycMod PI S Phase IC50/EC50 (HeLa cells): 1746 nM; Basal_Viability ATP SW480 IC50/EC50 (SW480; assay number 24): 7822 nM; Basal_Viability ATP HCT116 IC50/EC50 (HCT116; assay number 25): 910.7 nM; Basal_Viability ATP Colo 320 IC50/EC50 (Colo320): 2013 nM
CC[C@]1(O)C[C@@H]2CN(CCc3c([nH]c4ccccc34)[C@@](C(=O)OC)(c3cc4c(cc3OC)N(C)[C@H]3[C@@](O)(C(=O)OC)[C@H](OC(C)=O)[C@]5(CC)C=CCN6CC[C@]43[C@@H]65)C2)C1.O=S(=O)(O)O [NCGC00344583-01]	> 10000	3.5	> 20000	4.8	4.83	4.52	5.21	2.6			GSK3b inh pretreated_Viability ATP HCT116 IC50/EC50 [5]: 1 nM; Basal_Viability ATP RKO IC50/EC50 (RKO): 1 nM; Basal_Viability ATP SNU-C1 IC50/EC50 (SNU-C1): 1 nM; Basal_Viability ATP HT-29 IC50/EC50 (HT-29): 1 nM; Hela CellCycMod PI S Phase IC50/EC50 (HeLa cells): > 10000 nM; Basal_Viability ATP Colo 320 IC50/EC50 (Colo320): 1 nM
Clc1cc(Cl)c(OCC#CI)cc1Cl [NCGC00181134-02]	> 10000	> 20000	> 20000					> 10000			
Cc1c2oc3c(C)ccc(C(=O)N[C@@H]4C(=O)N[C@H](C(C)C)C(=O)N5CCC[C@H]5C(=O)N(C)CC(=O)N(C)[C@@H](C(C)C)C(=O)O[C@@H]4C)c3nc-2c(C(=O)N[C@@H]2C(=O)N[C@H](C(C)C)C(=O)N3CCC[C@H]3C(=O)N(C)CC(=O)N(C)[C@@H](C(C)C)C(=O)O[C@@H]2C)c(N)c1=O [NCGC00271789-02] (I: T[dV]P[Sar][NMeV] / II: T[dV]P[Sar][NMeV]; ester I:1-I:C, II:1-II:C; linker I:N-II:N via Actinocin(9to1))	40.31	37	1.5					1			
CCCCc1ccc2nc(NC(=O)OC)[nH]c2c1 [NCGC00016706-07]									33.6	68.2	IC50/EC50, VEGF_ADSC\ECFC Angio Hoechst NucArea (assay number 3) [1]: > 10000 nM; IC50/EC50, Hela CellCycMod PI 2N (assay number 14) (HeLa cells): 10.4 nM; IC50/EC50, Hela CellCycMod PI 4N (assay number 16) (HeLa cells): 10.62 nM; IC50/EC50, Hela CellCycMod PI Cell Number (assay number 18) (HeLa cells): 5.66 nM; IC50/EC50, Hela CellCycMod PI MI (assay number 17) (HeLa cells): 7.17 nM; IC50/EC50, Hela CellCycMod PI S Phase (assay number 15) (HeLa cells): > 10000 nM; IC50/EC50, VEGF_ADSC\ECFC Angio CD31 TubeArea (assay number 2) [4]: 53 nM
CN1C[C@H](CNC(=O)OCc2ccccc2)C[C@@H]2c3cccc4c3c(cn4C)C[C@H]21 [NCGC00017257-14]									> 20000	> 20000	IC50/EC50, 5mMGluc_INS1E SecretionMod (assay number 8) (INS-1E cells): > 33330 nM
